From US6166023A, “1,5- and 3-O-substituted 1H-indazoles having anti-asthmatic, anti-allergic, anti-inflammatory, immunomodulating and neuroprotective action, process for their preparation and their use as medicaments” (Arzneimittelwerk Dresden GmbH, priority 1998, dated 2000)

Tests used:
[1] = tested on: pulmonary eosinophil infiltration; test: Inhibition of late-phase eosinophilia 24 h after inhalational ovalbumin challenge in actively sensitized guinea-pigs; type: in vivo; settings: BAL 24 h after OVA challenge
Experimental: The inhibition of pulmonary eosinophil infiltration by the substances is tested in an in-vivo test on male Dunkin-Hartley guinea-pigs (200-250 g) sensitized against ovalbumin (OVA). The sensitization is carried out by means of two intraperitoneal injections of a suspension of 20 μg of OVA together with 20 mg of aluminium hydroxide as an adjuvant in 0.5 ml of physiological saline solution per animal on two successive days. 14 days after the second injection, the animals are pretreated with mepyramine maleate (10 mg/kg i.p.) in order to protect them from anaphylactic death. 30 minutes later, the animals are exposed for 30 sec in a plastic box to an OVA aerosol (0.5 mg/ml) which is generated by a nebulizer driven by compressed air (19.6 kPa) (allergen challenge). Control animals are nebulized with physiological saline solution. 24 hours after the challenge, the animals are anaesthetized with an overdose of ethylurethane (1.5 g/kg of body weight i.p.) and a bronchoalveolar lavage (BAL) is carried out with 2×5 ml of physiological saline solution. The BAL fluid is collected, centrifuged at 300 rpm for 10 min and the cell pellet is then resuspended in 1 ml of physiological saline solution. The eosinophils are stained using the Becton-Dickinson test kit (N. 5877) for eosinophils and counted in a Neubauer chamber. 2 control groups (nebulization with physiological saline solution and nebulization with OVA solution) are additionally included in each test.
The percentage inhibition of the eosinophilia of the test group treated with substance is calculated according to the following formula:
(A-C)-(B-C)/(A-C)×100=% inhibition
The test substances are administered intraperitoneally or orally as a suspension in 10% polyethylene glycol 300 and 0.5% strength 5-hydroxyethylcellulose 2 hours before allergen challenge. The control groups are treated with the vehicle according to the administration form of the test substance. The number of animals per control and test group is 3-10.

[2] = target: human cyclophilin B (Homo sapiens, UniProt P23284); test: Peptidylprolyl isomerase (PPIase) activity inhibition assay; type: biochemical; settings: Cyp B, test peptide Suc-Ala-Ala-Pro-Phe-Nan
Sequence of human cyclophilin B (P23284 34-216): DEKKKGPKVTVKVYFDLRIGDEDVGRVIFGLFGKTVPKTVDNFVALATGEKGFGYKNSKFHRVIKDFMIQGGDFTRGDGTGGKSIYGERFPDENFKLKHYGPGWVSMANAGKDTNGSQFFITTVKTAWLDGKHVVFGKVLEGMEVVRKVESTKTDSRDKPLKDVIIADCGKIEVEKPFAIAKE
Experimental: To determine the anti-asthmatic, anti-allergic, anti-inflammatory and/or immunomodulating properties of the compounds according to the invention, in-vitro and in-vivo investigations were carried out. […] For the initial screening (10 μmol/l), the inhibition of human cyclophilin B in the PPIase test is determined.
The PPIase activity is tested according to a globally customary enzyme test: G. Fischer, H. Bang, C. Mech, Biomed. Biochim. Acta 43 1101-1111; G. Fischer, H. Bang, A. Schellenberger, Biochim. Biophys. Acta 791 (1984), 87-97; D. H. Rich et al., J. Med. Chem. 38 (1995), 4164-4170.
The compounds of the general formula I according to the invention are preincubated at 4° C. for 15 minutes together with 10 nmol of Cyp B. The enzyme reaction is started using the test peptide Suc-Ala-Ala-Pro-Phe-Nan after addition of chymotrypsin and HEPES buffer. The extinction change at 390 nm is then monitored and evaluated. The photometrically determined extinction change results from two sub-reactions: a) the rapid chymotryptic cleavage of the trans-peptide; b) the non-enzymatic cis-trans isomerization, which is catalysed by cyclophilins.

SMILES	Eosinophil million/animal x ± s, B = group treated with substance with OVA challenge ([1]; 10 mg/kg i.p. -2 h)	Inhibition [%] of eosinophilia ([1]; 10 mg/kg i.p. -2 h)	Eosinophil million/animal x ± s, B = group treated with substance with OVA challenge ([1]; 30 mg/kg p.o. -2 h)	Inhibition [%] of eosinophilia ([1]; 30 mg/kg p.o. -2 h)	inhibition at 10 µM [2]
COc1ccc2c(c1)c(OCCOc1c(F)cc(F)cc1Br)nn2S(=O)(=O)c1ccc(C)cc1 [Example 1, 3-[2-(2-Bromo-4,6-difluorophenoxy)ethoxy]-5-methoxy-1-(toluene-4-sulphonyl)-1H-indazole]	1.23 ± 0.38 million/animal	61%	1.75 ± 1.86 million/animal	65%	95%
COc1ccc2c(c1)c(OCCOc1ccc(Cl)cc1)nn2S(=O)(=O)c1ccc(Cl)cc1 [Example 7]	–	–	–	–	70%
COc1ccc2c(c1)c(OCCOc1ccc(Cl)cc1)nn2S(=O)(=O)c1ccc(F)cc1 [Example 8]	1.84 ± 0.94 million/animal	41%	–	–	–
COc1ccc(S(=O)(=O)n2nc(OCCOc3ccc(Cl)cc3)c3cc(OC)ccc32)cc1 [Example 9]	–	–	–	–	90%
COc1ccc2c(c1)c(OCc1noc(-c3cccc(C(F)(F)F)c3)n1)nn2S(=O)(=O)c1ccc(C)cc1 [Example 32, 5-Methoxy-1-(toluene-4-sulphonyl)-3-[5-(3-trifluoromethylphenyl)-1,2,4-oxadiazol-3-ylmethoxy]-1H-indazole]	0.86 ± 0.49 million/animal	85%	–	–	70%
COc1ccc2c(c1)c(OCc1ccc(Cl)cc1[N+](=O)[O-])nn2S(=O)(=O)c1ccc(C)cc1 [Example 41]	–	–	–	–	71%
COc1ccc2c(c1)c(OCC(=O)Nc1ccc(F)cc1F)nn2S(=O)(=O)c1ccc(C)cc1 [Example 66, N-(2,4-Difluorophenyl)-2-[5-methoxy-1-(toluene-4-sulphonyl)-1H-indazol-3-yloxy]acetamide]	–	–	–	–	40%
COc1ccc2c(c1)c(OCC(=O)Nc1ccc(Cl)cc1Cl)nn2S(=O)(=O)c1ccc(C)cc1 [Example 73]	–	–	–	–	67%
COc1ccc2c(c1)c(OCc1c(Cl)cccc1Cl)nn2Cc1cccc([N+](=O)[O-])c1 [Example 84]	–	–	–	–	90%
COc1ccc2c(c1)c(OCCOc1ccc([N+](=O)[O-])cc1)nn2Cc1ccc(F)cc1 [Example 91, 1-(4-Fluorobenzyl)-5-methoxy-3-[2-(4-nitrophenoxy)ethoxy]-1H-indazole]	1.16 ± 0.65 million/animal	71%	–	–	–
COc1ccc2c(c1)c(OCCOc1c(F)cc(F)cc1Br)nn2CCOc1ccc([N+](=O)[O-])cc1 [Example 99, 3-[2-(2-Bromo-4,6-difluorophenoxy)ethoxy]-5-methoxy-1-[2-(4-nitrophenoxy)ethyl]-1H-indazole]	1.35 ± 0.67 million/animal	46%	1.33 ± 0.23 million/animal	33%	–
COc1ccc2c(c1)c(OCc1cc(C(C)=O)ccc1OC)nn2CCOc1ccc([N+](=O)[O-])cc1 [Example 107]	1.44 ± 0.92 million/animal	68%	–	–	–
O=C(Nc1ccc2c(c1)c(OCCOc1ccc([N+](=O)[O-])cc1)nn2Cc1ccc(Cl)cc1Cl)Nc1cccc2ccccc12 [Example 114, 1-{1-(2,4-Dichlorobenzyl)-3-[2-(4-nitrophenoxy)ethoxy]-1H-indazol-5-yl}-3-naphthalen-1-ylurea]	1.19 ± 0.43 million/animal	58%	–	–	100%
O=C(Nc1ccc2c(c1)c(OCCOc1ccc([N+](=O)[O-])cc1)nn2Cc1ccc(Cl)c(Cl)c1)Nc1cccc2ccccc12 [Example 116]	–	–	–	–	90%
